Results taken from patent US6737383B1, “Herbicidal oxadiazolidines” (priority 1999, dated 2004).

Experiments:
bedstraw = assay: Test B pre/postemergence bedstraw; type: in vivo, Galium aparine
Summary of the method: (§1)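 Response is a visual 0-to-10 score relative to untreated plants, where 0 means no effect and 10 means complete control, taken twelve to sixteen days after application. Treatments went onto soil at planting and onto foliage of 1- to 4-leaf plants, using a surfactant-containing non-phytotoxic solvent.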

blackgrass = assay: Test B pre/postemergence blackgrass; type: in vivo, Alopecurus myosuroides
Summary of the method: as §1

surinam grass = assay: Test B pre/postemergence surinam grass; type: in vivo, Brachiaria decumbens
Summary of the method: as §1

corn = assay: Test B pre/postemergence corn; type: in vivo, Zea mays
Summary of the method: as §1

giant foxtail = assay: Test B pre/postemergence giant foxtail; type: in vivo, Setaria faberii
Summary of the method: as §1

morningglory = assay: Test B pre/postemergence morningglory; type: in vivo, Ipomoea hederacea
Summary of the method: as §1

pigweed = assay: Test B pre/postemergence pigweed; type: in vivo, Amaranthus retroflexus
Summary of the method: as §1

rape = assay: Test B pre/postemergence rape; type: in vivo, Brassica napus
Summary of the method: as §1

soybean = assay: Test B pre/postemergence soybean; type: in vivo, Glycine max
Summary of the method: as §1

sugar beet = assay: Test B pre/postemergence sugar beet; type: in vivo, Beta vulgaris
Summary of the method: as §1

velvetleaf = assay: Test B pre/postemergence velvetleaf; type: in vivo, Abutilon theophrasti
Summary of the method: as §1

purple nutsedge = assay: Test B pre/postemergence purple nutsedge; type: in vivo, Cyperus rotundus
Summary of the method: as §1

rice = assay: Test B flood test rice; type: in vivo, Oryza sativa
Summary of the method: (§2)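 Plants were grown to the 2-leaf stage before treatment with test chemical, then held in a greenhouse for twelve to sixteen days. Injury was visually rated against untreated controls on a 0–10 scale, where 0 is no effect and 10 is complete control.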

smallflower flatsedge = assay: Test B flood test smallflower flatsedge; type: in vivo, Cyperus difformis
Summary of the method: as §2

duck salad = assay: Test B flood test duck salad; type: in vivo, Heteranthera limosa
Summary of the method: as §2

bamyardgrass = assay: Test B flood test barnyardgrass; type: in vivo, Echinochloa crus-galli
Summary of the method: as §2

[1] = Preemergence, Rate 62 g/ha, scale of 0 to 10 where 0 is no effect and 10 is complete control
[2] = Preemergence, Rate 125 g/ha, 0 is no effect, 10 is complete control
[3] = Preemergence, Rate 250 g/ha, scale 0 to 10, 0 is no effect, 10 is complete control
[4] = Preemergence, Rate 500 g/ha, scale 0 to 10 (0 no effect, 10 complete control)
[5] = Rate 62 g/ha, Postemergence, scale of 0 to 10 where 0 is no effect and 10 is complete control
[6] = Rate 125 g/ha, Postemergence, scale 0 to 10
[7] = Rate 500 g/ha, Postemergence, scale 0 to 10
[8] = Rate 62 g/ha, headed Pre-emergence (flood test species), scale 0 to 10 (0 no effect, 10 complete control)
[9] = Rate 125 g/ha, Pre-emergence, flood test species, scale 0 to 10 where 0 is no effect and 10 is complete control
[10] = Rate 250 g/ha, Pre-emergence, flood-test species, scale 0 to 10, 0 is no effect, 10 is complete control
[11] = Rate 500 g/ha, headed Pre-emergence (flood test species), scale 0 to 10 (0 no effect, 10 complete control)

## Cc1nc(C)c(Cn2c(=O)on(C(=O)N(c3ccc(Cl)cc3)C(C)C)c2=O)s1 [Compound 191]
bedstraw; [1]
  Bedstraw plant response rating: 0
bedstraw; [2]
  Bedstraw plant response rating (0 to 10 scale): 0
bedstraw; [3]
  Bedstraw plant response rating: 0
bedstraw; [4]
  Bedstraw plant response rating: 0
bedstraw; [5]
  Bedstraw plant response rating: 0
bedstraw; [6]
  Bedstraw plant response rating: 0
bedstraw; Rate 250 g/ha, Postemergence
  Plant response rating (0 to 10; 0 is no effect, 10 is complete control), Bedstraw: 0
bedstraw; [7]
  Bedstraw plant response rating: 0
blackgrass; [1]
  Blackgrass plant response rating: 0
blackgrass; [2]
  Blackgrass plant response rating (0 to 10 scale): 0
blackgrass; [3]
  Blackgrass plant response rating: 4
blackgrass; [4]
  Blackgrass plant response rating: 6
blackgrass; [5]
  Blackgrass plant response rating: 0
blackgrass; [6]
  Blackgrass plant response rating: 0
blackgrass; Rate 250 g/ha, Postemergence
  Plant response rating (0 to 10; 0 is no effect, 10 is complete control), Blackgrass: 0
blackgrass; [7]
  Blackgrass plant response rating: 3
Surinam grass; [1]
  B. signalgrass plant response rating: 0
Surinam grass; [2]
  B. signalgrass plant response rating (0 to 10 scale): 0
Surinam grass; [3]
  B. signalgrass plant response rating: 0
Surinam grass; [4]
  B. signalgrass plant response rating: 3
Surinam grass; [5]
  B. signalgrass plant response rating: 0
Surinam grass; Rate 125 g/ha, Postemergence, scale 0 (no effect) to 10 (complete control)
  B. signalgrass plant response rating: 0
Surinam grass; Rate 250 g/ha, Postemergence, scale 0 to 10, 0 is no effect, 10 is complete control
  Plant response rating, B. signalgrass: 0
Surinam grass; Rate 500 g/ha, Postemergence, scale 0 to 10, 0 no effect, 10 complete control
  B. signalgrass plant response rating: 1
corn; [1]
  Corn plant response rating: 0
corn; [2]
  Corn plant response rating (0 to 10 scale): 0
corn; [3]
  Corn plant response rating: 0
corn; [4]
  Corn plant response rating: 0
corn; [5]
  Corn plant response rating: 0
corn; [6]
  Corn plant response rating: 0
corn; Rate 250 g/ha, Postemergence
  Plant response rating (0 to 10; 0 is no effect, 10 is complete control), Corn: 0
corn; [7]
  Corn plant response rating: 0
Giant foxtail; [1]
  Giant foxtail plant response rating: 3
Giant foxtail; [2]
  Giant foxtail plant response rating (0 to 10 scale): 8
Giant foxtail; [3]
  Giant foxtail plant response rating: 9
Giant foxtail; [4]
  Giant foxtail plant response rating: 10
Giant foxtail; [5]
  Giant foxtail plant response rating: 0
Giant foxtail; [6]
  Giant foxtail plant response rating: 0
Giant foxtail; Rate 250 g/ha, Postemergence
  Plant response rating (0 to 10; 0 is no effect, 10 is complete control), Giant foxtail: 0
Giant foxtail; [7]
  Giant foxtail plant response rating: 2
morningglory; [1]
  Morningglory plant response rating: 0
morningglory; [3]
  Morningglory plant response rating: 0
morningglory; [4]
  Morningglory plant response rating: 0
morningglory; [5]
  Morningglory plant response rating: 1
morningglory; [6]
  Morningglory plant response rating: 2
morningglory; Rate 250 g/ha, Postemergence
  Plant response rating (0 to 10; 0 is no effect, 10 is complete control), Morningglory: 2
morningglory; [7]
  Morningglory plant response rating: 8
pigweed; [1]
  Redroot pigweed plant response rating: 0
pigweed; [2]
  Redroot pigweed plant response rating (0 to 10 scale): 0
pigweed; [3]
  Redroot pigweed plant response rating: 1
pigweed; [4]
  Redroot pigweed plant response rating: 6
pigweed; [5]
  Redroot pigweed plant response rating: 0
pigweed; [6]
  Redroot pigweed plant response rating: 0
pigweed; Rate 250 g/ha, Postemergence
  Plant response rating (0 to 10; 0 is no effect, 10 is complete control), Redroot pigweed: 0
pigweed; [7]
  Redroot pigweed plant response rating: 0
rape; [1]
  Rape plant response rating: 0
rape; [2]
  Rape plant response rating (0 to 10 scale): 0
rape; [3]
  Rape plant response rating: 0
rape; [4]
  Rape plant response rating: 0
rape; [5]
  Rape plant response rating: 0
rape; [6]
  Rape plant response rating: 0
rape; Rate 250 g/ha, Postemergence
  Plant response rating (0 to 10; 0 is no effect, 10 is complete control), Rape: 0
rape; [7]
  Rape plant response rating: 0
soybean; [1]
  Soybean plant response rating: 0
soybean; [2]
  Soybean plant response rating (0 to 10 scale): 0
soybean; [3]
  Soybean plant response rating: 0
soybean; [4]
  Soybean plant response rating: 0
soybean; [5]
  Soybean plant response rating: 3
soybean; [6]
  Soybean plant response rating: 3
soybean; Rate 250 g/ha, Postemergence
  Plant response rating (0 to 10; 0 is no effect, 10 is complete control), Soybean: 3
soybean; [7]
  Soybean plant response rating: 4
Sugar beet; [1]
  Sugarbeets plant response rating: 0
Sugar beet; [2]
  Sugarbeets plant response rating (0 to 10 scale): 0
Sugar beet; [3]
  Sugarbeets plant response rating: 0
Sugar beet; [4]
  Sugarbeets plant response rating: 0
Sugar beet; [5]
  Sugarbeets plant response rating: 0
Sugar beet; [6]
  Sugarbeets plant response rating: 0
Sugar beet; Rate 250 g/ha, Postemergence
  Plant response rating (0 to 10; 0 is no effect, 10 is complete control), Sugarbeets: 0
Sugar beet; [7]
  Sugarbeets plant response rating: 0
velvetleaf; [1]
  Velvetleaf plant response rating: 0
velvetleaf; [3]
  Velvetleaf plant response rating: 0
velvetleaf; [4]
  Velvetleaf plant response rating: 0
velvetleaf; [5]
  Velvetleaf plant response rating: 0
velvetleaf; [6]
  Velvetleaf plant response rating: 0
velvetleaf; Rate 250 g/ha, Postemergence
  Plant response rating (0 to 10; 0 is no effect, 10 is complete control), Velvetleaf: 2
Purple nutsedge; [1]
  Nutsedge plant response rating: 0
Purple nutsedge; [2]
  Nutsedge plant response rating (0 to 10 scale): 0
Purple nutsedge; [3]
  Nutsedge plant response rating: 0
Purple nutsedge; [4]
  Nutsedge plant response rating: 0
Purple nutsedge; [5]
  Nutsedge plant response rating: 0
Purple nutsedge; [6]
  Nutsedge plant response rating: 0
Purple nutsedge; Rate 250 g/ha, Postemergence
  Plant response rating (0 to 10; 0 is no effect, 10 is complete control), Nutsedge: 0
Purple nutsedge; [7]
  Nutsedge plant response rating: 0
rice; [8]
  Rice plant response rating: 0
rice; [9]
  Rice plant response rating: 0
rice; [10]
  Rice plant response rating: 0
rice; [11]
  Plant response rating, Rice: 0
Smallflower flatsedge; [8]
  S. Flatsedge plant response rating: 0
Smallflower flatsedge; [9]
  S. Flatsedge plant response rating: 0
Smallflower flatsedge; [10]
  S. Flatsedge plant response rating: 0
Smallflower flatsedge; Rate 500 g/ha, Pre-emergence, flood test species, scale 0 to 10 (0 no effect, 10 complete control)
  S. Flatsedge plant response rating: 0
Duck salad; [8]
  Ducksalad plant response rating: 0
Duck salad; [9]
  Ducksalad plant response rating: 0
Duck salad; [10]
  Ducksalad plant response rating: 0
Duck salad; [11]
  Plant response rating, Ducksalad: 0
bamyardgrass; [8]
  Barnyardgrass plant response rating: 0
bamyardgrass; [9]
  Barnyardgrass plant response rating: 0
bamyardgrass; [10]
  Barnyardgrass plant response rating: 0
bamyardgrass; [11]
  Plant response rating, Barnyardgrass: 0
